The target in assay [1] is T1, Neuropeptide Y receptor type 4 (Homo sapiens, UniProt P50391). As to the kind of experiment: Binding affinity to human Y4R expressed in CHO cells co-expressing Gqi5-mtAEQ assessed as dissociation constant preincubated for 20 mins under DPBS condition. The format is cell-based.
The target in assay [2] is T1, Neuropeptide Y receptor type 4. As to the kind of experiment: Binding affinity to human Y4R under 137 mM sodium condition.
Assay [3] has the same target. As to the kind of experiment: Binding affinity to human Y4R expressed in CHO cells co-expressing Gqi5-mtAEQ under sodium free buffer condition. The format is cell-based.
Assay [4] has the same target. As to the kind of experiment: Binding affinity to human Y4R expressed in CHO cells co-expressing Gqi5-mtAEQ at 4 degreeC. The class given is cell-based.
Assay [5] has the same target. As to the kind of experiment: Binding affinity to human Y4R expressed in CHO cells co-expressing Gqi5-mtAEQ assessed as dissociation constant under sodium free buffer condition. The class given is cell-based.
The target is the same in assay [6]. As to the kind of experiment: Binding affinity to human Y4R expressed in CHO cells co-expressing Gqi5-mtAEQ assessed as dissociation constant preincubated for 2 hrs under DPBS condition. The class given is cell-based.
For assay [7] the target is unchanged. As to the kind of experiment: Binding affinity to human Y4R expressed in CHO cells co-expressing Gqi5-mtAEQ under DPBS condition. The format is cell-based.
For assay [8] the target is unchanged. As to the kind of experiment: Displacement of [3H]-(9S,12S,15S,19R,E)-4-amino-N-((S)-1-(((S)-1-(((S)-1-amino-3-(4-hydroxyphenyl)-1-oxopropan-2-yl)amino)-5-guanidino-1-oxopentan-2-yl)amino)-4-methyl-1-oxopentan-2-yl)-15-(3-guanidinopropyl)-12-(4-hydroxybenzyl)-2,11,14,17,20-pentaoxo-19-(4-(propanamido-2,3-t2)butanamido)-1,3,5,10,13,16,21-heptaazacyclopentacos-3-ene-9-carboxamide from human Y4R expressed in CHO cells coexpressing Gqi5-mtAEQ under isotonic sodium containing buffer condition. The class given is cell-based. (Loss of bound radioactivity is the signal in a displacement assay; it reports binding, not function.)

The target is the same in assay [9]. As to the kind of experiment: Binding affinity to human Y4R under sodium free condition.
For assay [10] the target is unchanged. As to the kind of experiment: Binding affinity to human Y4R under hypotonic sodium free condition.
Assay [11] has the same target. As to the kind of experiment: Binding affinity to human Y4R under 140 mM sodium condition.
Assay [12] has the same target. As to the kind of experiment: Displacement of [3H]-(9S,12S,15S,19R,E)-4-amino-N-((S)-1-(((S)-1-(((S)-1-amino-3-(4-hydroxyphenyl)-1-oxopropan-2-yl)amino)-5-guanidino-1-oxopentan-2-yl)amino)-4-methyl-1-oxopentan-2-yl)-15-(3-guanidinopropyl)-12-(4-hydroxybenzyl)-2,11,14,17,20-pentaoxo-19-(4-(propanamido-2,3-t2)butanamido)-1,3,5,10,13,16,21-heptaazacyclopentacos-3-ene-9-carboxamide from human Y4R expressed in CHO cells coexpressing Gqi5-mtAEQ under hypotonic sodium free buffer condition. The class given is cell-based. Particulars: read-out: Ki.

T1 sequence (P50391 whole entry): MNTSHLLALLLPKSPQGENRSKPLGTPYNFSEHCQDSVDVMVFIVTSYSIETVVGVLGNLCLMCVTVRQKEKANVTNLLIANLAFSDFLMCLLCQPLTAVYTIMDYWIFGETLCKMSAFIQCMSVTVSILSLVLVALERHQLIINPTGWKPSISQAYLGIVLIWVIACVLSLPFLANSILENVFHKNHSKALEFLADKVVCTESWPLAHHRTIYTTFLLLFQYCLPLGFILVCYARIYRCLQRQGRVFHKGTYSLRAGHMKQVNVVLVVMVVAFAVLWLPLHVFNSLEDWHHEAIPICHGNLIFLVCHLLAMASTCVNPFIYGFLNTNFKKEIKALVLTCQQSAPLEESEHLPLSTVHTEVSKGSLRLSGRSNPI

By Kd is commonly meant the free concentration of one partner at which half of the binding sites on the other are occupied at equilibrium, for simple one-to-one binding. `[3H]CC([3H])C(=O)NCCCC(=O)N[C@@H]1CC(=O)N[C@@H](CCCNC(=N)N)C(=O)N[C@@H](Cc2ccc(O)cc2)C(=O)N[C@H](C(=O)N[C@@H](CC(C)C)C(=O)N[C@@H](CCCNC(=N)N)C(=O)N[C@@H](Cc2ccc(O)cc2)C(N)=O)CCCN/C(N)=N/C(=O)NCCCCNC1=O` (stereo partly drawn): the equilibrium dissociation constant (Kd) in assay [1] came to 0.014 nM; in assay [2] it was 0.11 nM; in assay [3], 0.012 nM; in [4], 0.86 nM; in assay [5], 0.002 nM; in [6] it was 0.09 nM. The same compound came in with a Kd in assay [7] of 0.11 nM.

For `[3H]CC([3H])C(=O)N[C@H](CCCC[C@@H](N)C(=O)N[C@@H](Cc1ccc(O)cc1)C(=O)N[C@@H](CCCNC(=N)N)C(=O)N[C@@H](CC(C)C)C(=O)N[C@@H](CCCNC(=N)N)C(=O)N[C@@H](Cc1ccc(O)cc1)C(N)=O)C(=O)N[C@@H](Cc1ccc(O)cc1)C(=O)N[C@@H](CCCNC(=N)N)C(=O)N[C@@H](CC(C)C)C(=O)N[C@@H](CCCNC(=N)N)C(=O)N[C@@H](Cc1ccc(O)cc1)C(N)=O` (stereo partly drawn), the Ki in assay [8] (read-out: Ki) was 11 nM; in [8] (read-out: pKi (converted)), 10.2 nM; in assay [10], 0.87 nM; in [12], 0.39 nM. Further, the Kd was 0.67 nM in [9] and 9.8 nM in [11].

For the origin of these results see ChEMBL document CHEMBL5370598, “[3H]UR-JG102-A Radiolabeled Cyclic Peptide with High Affinity and Excellent Selectivity for the Neuropeptide Y Y4 Receptor” (J Med Chem, 2023).
